Series [1] has as its system Trypanosoma brucei brucei. The series can be described thus: Trypanocidal activity against bloodstream trypomastigote stage of wild-type Trypanosoma brucei brucei Lister 427 assessed as inhibition of respiration in presence of glycerol. The format is functional.
The test system of series [2] is Trypanosoma brucei brucei. The series can be described thus: Resistant factor, ratio of EC50 for bloodstream trypomastigote stage of wild-type Trypanosoma brucei brucei Lister 427 assessed as inhibition of respiration in presence of glycerol to EC50 for bloodstream trypomastigote stage of wild-type Trypanosoma brucei brucei Lister 427 assessed as inhibition of respiration in absence of glycerol. The format is functional.

The nature of series [3]: Cytostatic activity against HEK293T cells after 30 hrs by resazurin based fluorimetric assay. In kind it is cell-based, HEK-293T. As to conditions: human. Background: The colour change of resazurin is a common sign of viable cells or microbes.
Series [4] can be described thus: Selectivity index, ratio of CC50 for HEK293T cells to EC50 for bloodstream form of Trypanosoma congolense IL3000. In kind it is toxicity. To be noted: human, read-out: Ratio CC50/EC50.
A short description of series [5]: Cytotoxicity against HEK cells up to 50 uM after 30 hrs by resazurin based fluorimetric assay. In kind it is cell-based. As to conditions: human.
Series [6] concerns Trypanosoma brucei brucei. The series can be described thus: Anti-parasitic activity against bloodstream trypomastigote stage of wild-type Trypanosoma brucei brucei Lister 427 after 48 hrs by alamar blue based fluorescence assay. In kind it is functional. As to conditions: Lister 427, 48 h.
The nature of series [7]: Selectivity index, ratio of CC50 for HEK293T cells to EC50 for bloodstream trypomastigote stage of wild-type Trypanosoma brucei brucei Lister 427. The format is toxicity. As to conditions: human, read-out: Ratio CC50/EC50.
In series [8] the test system is Trypanosoma congolense. The series can be described thus: Anti-parasitic activity against bloodstream form of Trypanosoma congolense IL3000 after 48 hrs by alamar blue based fluorescence assay. The format is functional. To be noted: IL3000, 48 h.
In series [9] the test system is Trypanosoma brucei brucei. The series can be described thus: Anti-parasitic activity against diminazene, pentamidine and melaminophenyl arsenical-resistant bloodstream trypomastigote stage of Trypanosoma brucei brucei B48 harboring TbAT1 deletion mutant after 48 hrs by alamar blue based fluorescence assay. In kind it is functional. As to conditions: B48, 48 h.
The nature of series [10]: Resistance factor, ratio of EC50 for diminazene, pentamidine and melaminophenyl arsenical-resistant bloodstream trypomastigote stage of Trypanosoma brucei brucei B48 harboring TbAT1 deletion mutant to EC50 for bloodstream trypomastigote stage of wild-type Trypanosoma brucei brucei Lister 427. In kind it is functional.

Each structure is given as a SMILES string.

Usually EC50 stands for the concentration giving half of the maximal effect. For orientation: CC50 means the concentration that lowers cell viability or growth by half.

For the compound `O=C(NO)c1ccc(OCCCCCCCCCCCC[P+](c2ccccc2)(c2ccccc2)c2ccccc2)cc1O.[Br-]`, the EC50 in series [1] stood at 158 nM; in [6], 140 nM; in series [8], 46400 nM. Moreover, in series [2], the “Ratio EC50” value turned out to be 1.13. The compound also showed a CC50 at 30 h in series [3] of over 400000 nM. The selectivity ratio was over 8.6 in [4] and over 2860 in series [7]. In addition, the Activity entry in series [5] is recorded as “Non-Toxic”.
For the compound `O=C(OCCCCCCCCCCCCCCCCBr)c1ccc(O)cc1O`, the EC50 is 49000 nM in series [9], 45700 nM in series [6] and over 100000 nM in series [8]. In series [10], the Ratio EC50 came to 1.07. This compound also returned a CC50 at 30 h in series [3] of over 400000 nM. Besides, the Activity result in series [5] is recorded as “Non-Toxic”. Also, the selectivity ratio in series [7] was over 9.
As to `O=C(OCCCCCCCCC[P+](c1ccccc1)(c1ccccc1)c1ccccc1)c1ccc(O)cc1O.[Br-]`, the EC50 in series [1] amounted to 5 nM; in series [9] it was 7.4 nM; in series [6], 5.9 nM; in series [8], 410 nM. Moreover, the figures for the Ratio EC50 in [10] and in series [2] were 1.24 and 0.88, respectively. This compound also yielded a CC50 at 30 h in [3] of 4680 nM. The results for the selectivity ratio in series [4] and in series [7] were 11.5 and 789, respectively. The Activity result in [5] is on record as “Non-Toxic”.
In [3], `O=C(NO)c1ccc(OCCCCCCCC[P+](c2ccccc2)(c2ccccc2)c2ccccc2)cc1O.[Br-]` showed a CC50 at 30 h of over 400000 nM. Further, the selectivity ratio in series [4] was over 14.7; in series [7], over 1000. Moreover, the Activity result in series [5] is “Non-Toxic”. Moreover, the EC50 was 400 nM in [6] and 27200 nM in series [8].
Take `O=C(NO)c1ccc(OCCCCCCCCCC[P+](c2ccccc2)(c2ccccc2)c2ccccc2)cc1O.[Br-]`: in series [3], the CC50 at 30 h is over 400000 nM. In series [5], the Activity entry is listed as “Non-Toxic”. The EC50 in series [6] is 200 nM. The selectivity ratio in series [7] was over 2040.
Consider `N=C(N)c1ccc(OCCCCCOc2ccc(C(=N)N)cc2)cc1` [PENTAMIDINE], for which the EC50 in series [1] turned out to be 4 nM; in series [9] it was 940 nM; in [6], 2.8 nM. For the same compound, the results for the Ratio EC50 in series [10] and in [2] were 98 and 1.32, respectively.
On to `N=C(N)c1ccc(/N=N/Nc2ccc(C(=N)N)cc2)cc1` [DIMINAZENE], for which the EC50 in series [1] was found to be 63 nM; in series [9], 780 nM; in [6] it was 65 nM; in [8], 151 nM. In addition, the “Ratio EC50” value in [2] was 0.97.
Take `O=C(OCCCCCCCCCCCCBr)c1ccc(O)cc1O`: the figures for the concentration for a half-maximal effect (EC50) in [9], in series [6] and in series [8] were 14900 nM, 14500 nM and 52100 nM, respectively. Further, the Ratio EC50 in series [10] was 1.03. In series [3], this compound showed a CC50 at 30 h of over 400000 nM. Also, the selectivity ratio is over 7.7 in [4] and over 28 in [7]. Besides, the Activity result in series [5] was “Non-Toxic”.
Take `O=C(OCCCCCCCCCCCC[P+](c1ccccc1)(c1ccccc1)c1ccccc1)c1ccc(O)cc1O.[Br-]`: the half-maximal effective concentration (EC50) was 1.2 nM in series [1], 1.2 nM in series [9], 1.2 nM in series [6] and 42 nM in [8]. Further, the Ratio EC50 amounted to 0.96 in series [10] and 1.01 in series [2]. The compound further displayed a CC50 at 30 h in series [3] of 1650 nM. For the same compound, in series [5], the Activity result is on record as “Non-Toxic”. The selectivity ratio in [7] came to 1330.
`O=COCCCCCCCCCCOC(=O)c1ccc(O)cc1O`: the EC50 in series [9] was 22100 nM; in series [6] it was 31800 nM; in series [8] it was over 100000 nM. The Ratio EC50 in series [10] stood at 0.69. The compound also showed a CC50 at 30 h in [3] of over 400000 nM. In series [5], the Activity entry is recorded as “Non-Toxic”. Besides, the selectivity ratio in series [7] is over 12.

The values above are taken from ChEMBL document CHEMBL3997795, “Conjugates of 2,4-Dihydroxybenzoate and Salicylhydroxamate and Lipocations Display Potent Antiparasite Effects by Efficiently Targeting the Trypanosoma brucei and Trypanosoma congolense Mitochondrion” (J Med Chem, 2017).
